Measured values reported in patent US20100124782A1, “Composition For Repairing Defect In Skin Or Gingival Soft Tissue And Method Of Culturing Autologous Fibroblasts” (Applied Cell Biotechnologies, Inc., priority 2007, published 2010).

Tested on: fibroblasts separated from skin tissue
Assay: Collagen concentration in fibroblast culture supernatant (human collagen ELISA quantitative kit)
Format: cell-based
Conditions: vitamin C (0.01-1 mM) added to the culture medium of skin fibroblasts; unit not given
Method: Culture of the fibroblasts separated from skin tissue was carried out according to a well-known method (R. I. Freshney, Culture of Animal Cells: A MANUAL OF BASIC TECHNIQUE (Wiley-Liss, Inc. 2000)). Specifically, the fibroblasts separated from skin tissue were being subcultured, subsequently followed by expansion culture, to be end up to a few T-225 flasks in the end. Vitamin C in the range of 0.01-1 mM was added to the culture medium three days before the end of culture (scheduled day of injection). Furthermore, the culture medium was replaced with a 2-5% self-serum addition culture medium with no vitamin C added. The cultured fibroblasts were exfoliated from a culture vessel with a dispersion liquid with no EDTA solution or enzyme, and the cells were separated from the dispersion liquid by centrifugation. Then, washing in a physiological salt solution were performed more than three times. The collagen concentration contained in the culture supernatant of the fibroblasts cultured in the culture medium with vitamin C added of Example 1 and the culture supernatant with no vitamin C added by the human collagen ELISA quantitative kit (AC Biotechnologies).

SMILES: O=C1O[C@H]([C@@H](O)CO)C(O)=C1O [vitamin C]
- collagen concentration contained in the culture supernatant: 11.3
